{
  "source": "patent US7393954B2",
  "about": "(Reliable Biopharmaceutical Corporation, priority 2002, dated 2008)",
  "origin": "cited, not measured here",
  "key": {"[1]": {"test_system": "chronic lymphocytic leukemia", "details": "result in words"}, "[2]": {"test_system": "hairy cell leukemia", "details": "result in words"}},
  "data": [
    {"smiles": "OC[C@H]1O[C@@H](n2cnc3c2N=CNC[C@H]3O)C[C@@H]1O", "note": "[Pentostatin]", "values": [
      {"measurement": "efficacy against chronic lymphocytic leukemia", "setting": "[1]", "result": "effective"},
      {"measurement": "efficacy in treatment of interferon-refractory hairy cell leukemia", "setting": "[2]; interferon-refractory, approved agent", "result": "highly effective"},
      {"measurement": "efficacy against hairy cell leukemia", "setting": "[2]", "result": "effective"}
    ]}
  ]
}
